“Also recorded” adds a separate entry of the source. Where a name gives a salt, the structure may show the parent alone. Read-outs that look alike come from different tables or passages of the source.
Assays:
[1] = target: T1, HEK293 cells overexpressing human Rac1b (Homo sapiens, UniProt P63000); experiment: Rac1b activation assay (G-LISA); format: cell-based
T1 construct: expressed in transfected cells; host or cells: HEK293
Protocol: Rac1b activation assay: HEK293 cells overexpressing human Rac1b were plated in 100 mm diameter dishes and grown for 5 days in MEM medium supplemented with 10% FBS, L-Glutamine and antibiotics. Cells were then treated with 50 μM of compounds or the solvent for 5 minutes, and the GTP loading of Rac1b was measured using a Rac Activation Assay Kit (Cytoskeleton) according to manufacturer's recommendations. Briefly, this assay uses a 96-well plate coated with RBD domain of Rho-family effector proteins. […] The signal is then developed with OPD reagent.

Rac1b = target: T2, Rac1b (Homo sapiens, UniProt P63000); experiment: Nucleotide binding assay: BODIPY-GTP binding to Rac1b; format: biochemical; conditions: for IC50: dose-response study; for inhibition at 50 µM: read-out: Rac1b % inhibition of BODIPY-GTP binding; for selectivity for Rac1b: versus Rac1 or Cdc42
T2 construct: GST (N); made in house; host or cells: E. coli BL21 Codon+RIL
Protocol: (§1) Fluorescence of GTP analog BODIPY-GTP increases when it binds to small G proteins. This property was used to assess ability of compounds to inhibit nucleotide binding to Rac1, Rac1b and Cdc42. 2 μM GST-Rac1 and 6 μg His6-Tiam1-DH/PH were diluted in a buffer containing 20 mM Tris, 50 mM NaCl, and 1 mM MgCl2. This mixture was loaded in a 96-well plate. Fluorescence recording were started (λEx: 485 nm; λEm: 538 nm) using a spectrofluorimeter (Fluoroskan; Thermolab Systems). Assay was initiated by the addition of 2 μM BODIPY-GTP with or without various doses of test compound. Fluorescence values were recorded, and data were processed as follows: background fluorescence (unbound BODIPY-GTP) was retrieved from fluorescence values.
(§2) This assay allows determining whether compounds can inhibit the binding of a fluorescent nucleotide to recombinant small G proteins of interest. The effect of various alkaloid compounds on binding of BODIPY-GTP to Rac1 activated by DH/PH domain of Guanine nucleotide Exchange Factor Tiam1 (Rac1/Tiam1), Rac1b and Cdc42 is described below.

[2] = target: T3, Rac1 activated by DH/PH domain of Guanine nucleotide Exchange Factor Tiam1 (Rac1/Tiam1) (Homo sapiens, UniProt P63000); experiment: Nucleotide binding assay: BODIPY-GTP binding to Rac1 activated by Tiam1 DH/PH; format: biochemical; conditions: for IC50: dose-response study; for inhibition at 50 µM: read-out: Rac1 % inhibition of BODIPY-GTP binding; for maximum inhibition on Rac1/Tiam1: dose-response study (1-2-5-10-25-50-75-100 μM)
T3 construct: made in house; host or cells: E. coli BL21 Codon+RIL
Protocol: as §1, §2

protein kinase C (PKC) = conditions: cited from earlier work
HCT116 cell line = experiment: Soft agar assay (anchorage-independent colony formation); format: cell-based; conditions: HCT116, 7 days
Description: Colony formation in soft agar is the most widely used assay to evaluate anchorage-independent growth potential and represents one of the best in vitro assays that correlates strongly with in vivo tumorigenic cell growth potential. Normal cells require adherence and spreading onto a solid substratum in order to remain viable and proliferate. In contrast, cancer cell line HCT116 (ATCC clone number CCL-247) lost this requirement and therefore can form proliferating colonies of cells when suspended in a semisolid agar medium. The assay was performed in 24-well plates, using duplicates wells for each compound concentration. Briefly, a 0.5% Bacto™ Agar (BD Biosciences) bottom layer (prepared in HCT116 complete growth medium supplemented or not with the tested compound) was poured first and allowed to harden (0.3 ml per well). HCT116 were trypsinized to generate a uniform single cell suspension. Five×10^3 cells per well were resuspended in 0.3% agar supplemented with complete growth medium, with or without several compound concentrations to form the top layer (0.3 ml per well). HCT116 were allowed to grow for 7 days in these conditions and then analysed for colonies formation. Analysis was performed from pictures taken under a microscope that are representative from 2 different fields of the well. For each field, 2 different focal plans were taken and were merged using ImageJ software. The number of colonies were scored and colonies' size were measured. IC50 were determined for the number and size of colonies using GraphPad Prism (GraphPad) software. Data are mean values of 2 to 3 independent experiments.

Cdc42 = target: T4, Cdc42 (Homo sapiens, UniProt P60953); experiment: Nucleotide binding assay: BODIPY-GTP binding to Cdc42; format: biochemical; conditions: for IC50: dose-response study; for inhibition at 50 µM: read-out: Cdc42 % inhibition of BODIPY-GTP binding
T4 construct: GST (N); made in house; host or cells: E. coli BL21 Codon+RIL
Protocol: as §1, §2

[3] = HEK293, read-out: G-LISA % inhibition @ 50 μM
[4] = Homo sapiens, HCT-116, 168 h, read-out: Soft agar assay IC50, Clone Number
[5] = Homo sapiens, HCT-116, 168 h, read-out: Soft agar assay IC50, Clone Size
[6] = HEK293, 50 μM, 5 minutes, GTP loading of Rac1b, read-out: G-LISA % inhibition @ 50 μM
[7] = final concentration of 50 μM, Rac1/Tiam1

T4 sequence (P60953 whole entry, species assumed): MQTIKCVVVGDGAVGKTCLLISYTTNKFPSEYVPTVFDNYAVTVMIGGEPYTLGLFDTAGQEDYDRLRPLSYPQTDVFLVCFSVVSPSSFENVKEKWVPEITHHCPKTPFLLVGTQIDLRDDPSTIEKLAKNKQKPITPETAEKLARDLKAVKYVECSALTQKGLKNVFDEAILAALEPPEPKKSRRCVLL

Structure (SMILES) | inhibition at 50 µM (Cdc42; final concentration of 50 μM) [%] | inhibition at 50 µM (Rac1b; final concentration of 50 μM) [%] | inhibition at 50 µM [2, 7] [%] | IC50 (HCT116 cell line; [4]) [µM] | IC50 (HCT116 cell line; [5]) [µM] | also measured
C[n+]1cc2c3c(ccc2c2ccc4cc5c(cc4c21)OCO5)OCO3.O.[Cl-] [Compound 13, 13-methyl-[1,3]benzodioxolo[5,6-c]-1,3-dioxolo[4,5-i]phenanthridinium chloride hydrate, reference compound] |  |  |  | 1.9 ± 0.6 | 1.5 ± 0.2 | inhibition at 50 µM [1, 3]: 50 ± 3%; IC50 (Rac1b): 4.6 ± 0.4 µM; fold more active on Rac1b than on Rac1/Tiam1 (Rac1b; from IC50s): 13 fold; times more active on Rac1b than on Cdc42 (Rac1b; from IC50s): 6 times; inhibition at 50 µM (Rac1b): 100%; selectivity for Rac1b (Rac1b): some significant selectivity for Rac1b; IC50 [2]: 57.8 ± 4.3 µM; inhibition at 50 µM [2]: 45 ± 4%; activity against PKC (protein kinase C (PKC)): 217 μm; IC50 (Cdc42): 32.1 ± 0.7 µM; inhibition at 50 µM (Cdc42): 63 ± 2%
O=c1cc(CN2CCOCC2)occ1OCCCCCSc1ccnc2cc(C(F)(F)F)ccc12 [EHT 1864, reference compound] |  |  |  |  |  | IC50 (HCT116 cell line; read-out: Soft agar assay IC50, Clone Number): 57.5 ± 4.5 µM; IC50 (HCT116 cell line; read-out: Soft agar assay IC50, Clone Size): 19.5 ± 2.5 µM
COc1ccc2cc3[n+](cc2c1OC)CCc1cc(O)c(O)cc1-3 [Compound 4, 9,10-dimethoxy-5,6-dihydro-isoquino[3,2-a]isoquinolinylium-2,3-diol chloride] | 31 ± 9 |  |  |  |  | inhibition at 50 µM [1, 3]: 30 ± 5%; IC50 (Rac1b): 23.8 ± 2.9 µM; inhibition at 50 µM (Rac1b): 54 ± 2%; IC50 [2]: 58.6 ± 16.9 µM; inhibition at 50 µM [2]: 39 ± 2%
COc1ccc2c(c[n+](C)c3c4cc(O)c(O)cc4ccc23)c1OC [Compound 51, 2,3-Dihydroxy-7,8-dimethoxy-5-methylbenzo[c]phenanthridinium chloride] | 38 ± 2 |  |  | > 50 | 11.4 ± 1.9 | IC50 (Cdc42): 78 ± 3 µM
COc1ccc2c(c[n+](C)c3c4cc5c(cc4ccc23)OCO5)c1OC.[Cl-] [Compound 14, 1,2-dimethoxy-N-methyl[1,3]benzodioxolo[5,6-c]phenanthridinium chloride, reference compound] | 35 ± 10 | 100 | 25 ± 6 | 2.4 ± 0.2 | 2 ± 0.3 | inhibition at 50 µM [1, 6]: 40 ± 10%; IC50 (Rac1b): 6.7 ± 0.9 µM; selectivity for Rac1b (Rac1b): highly selective for Rac1b; also recorded: some significant selectivity for Rac1b; maximum inhibition on Rac1/Tiam1 [2]: around 25%; activity against PKC (protein kinase C (PKC)): 1 μm
COc1cc2cc(-c3ccc(O)c(O)c3)nc(C)c2cc1OC [Compound 26, 4-(6,7-Dimethoxy-1-methylisoquinolin-3-yl)benzene-1,2-diol hydrochloride] | 15 ± 1 |  |  | 14.8 ± 3.3 | 8.5 ± 0.9 | 
C[n+]1cc2c(O)c(O)ccc2c2ccc3cc(O)c(O)cc3c21 [Compound 52, 2,3,7,8-Tetrahydroxy-5-methylbenzo[c]phenanthridinium chloride] |  |  |  | 9.8 ± 1.3 | 9.5 ± 0.4 | IC50 (Cdc42): 22 ± 2 µM; inhibition at 50 µM (Cdc42): 73 ± 4%
COc1ccc2cc3[n+](cc2c1OC)CCc1cc2c(cc1-3)OCO2 [Compound 1, Berberine chloride, reference compound] | 8 ± 2 | 23 ± 2 | 15 ± 2 |  |  | maximum inhibition on Rac1b (Rac1b; dose-response study (1-2-5-10-25-50-75-100 μM)): 29±1%; maximum inhibition on Rac1/Tiam1 [2]: 19±1%
Oc1cc2c(cc1O)C1Cc3ccc(O)c(O)c3CN1CC2 (racemic) [Compound 16, (±)-5,8,13,13a-Tetrahydro-6H-isoquino[3,2-a]isoquinolinylium-2,3,9,10-tetraol hydrochloride] |  |  |  | 6.4 ± 1.3 | 6.2 ± 0.4 | inhibition at 50 µM (Cdc42): 4 ± 6%
COc1cc2cc(-c3ccc4ccccc4c3)nc(C)c2cc1OC.Cl [Compound 41, 6,7-Dimethoxy-1-methyl-3-(naphthalen-2-yl)isoquinolinylium chloride] |  |  |  | 70.7 ± 5.9 | 44.4 ± 4.5 | Cdc42 % inhibition of BODIPY-GTP binding (Cdc42; final concentration of 50 μM, 50 µM): 52 ± 4%

The next lines start with results.

inhibition at 50 µM (Cdc42; final concentration of 50 μM) [%] | inhibition at 50 µM (Rac1b; final concentration of 50 μM) [%] | inhibition at 50 µM [2, 7] [%] | Structure (SMILES) | IC50 (HCT116 cell line; [4]) [µM] | IC50 (HCT116 cell line; [5]) [µM] | also measured
7 ± 2 | 27 ± 2 | 18 ± 3 | COc1cc2cc(-c3cccc(C(C)=O)c3)nc(C)c2cc1OC [Compound 24, 1-(3-(6,7-Dimethoxy-1-methylisoquinolin-3-yl)phenyl)ethanone hydrochloride] |  |  | inhibition at 50 µM [1, 6]: 19 ± 5%
17 ± 1 | 18 ± 1 | 15 ± 3 | COc1cc(-c2cc3cc(OC)c(OC)cc3c(C)n2)ccc1O [Compound 47, 4-(6,7-Dimethoxy-1-methylisoquinolin-3-yl)-2-methoxyphenol hydrochloride] |  |  | inhibition at 50 µM [1, 6]: 13 ± 8%
3 ± 5 | 20 ± 2 | 13 ± 2 | COc1cc2cc(-c3cccc(N)c3)nc(C)c2cc1OC [Compound 28, 3-(6,7-Dimethoxy-1-methylisoquinolin-3-yl)aniline dihydrochloride] |  |  | inhibition at 50 µM [1, 6]: 27 ± 4%
4 ± 4 | 16 ± 2 | 9 ± 3 | COc1cc2cc(-c3cccc(NS(C)(=O)=O)c3)nc(C)c2cc1OC [Compound 30, N-(3-(6,7-Dimethoxy-1-methylisoquinolin-3-yl)phenyl)methanesulfonamide hydrochloride] |  |  | inhibition at 50 µM [1, 6]: 12 ± 2%
14 ± 1 | 17 ± 3 | 15 ± 3 | COc1ccc(-c2cc3cc(OC)c(OC)cc3c(C)n2)cc1 [Compound 40, 6,7-Dimethoxy-3-(4-methoxyphenyl)-1-methylisoquinolinylium chloride] |  |  | 
3 ± 1 | 16 ± 2 | 9 ± 2 | COc1ccc2c(c1OC)C[N+]1(Cc3ccccc3)CCc3cc4c(cc3C1C2)OCO4 (racemic) [Compound 5, (±)-7-benzyl-9,10-dimethoxy-5,8,13,13a-tetrahydro-6H-[1,3]dioxolo[4,5-g]isoquino[3,2-a]isoquinolinylium bromide] |  |  | 
12 ± 1 | 36 ± 4 | 22 ± 1 | Cc1c2cc(O)c(O)cc2cc(-c2ccc(O)c(O)c2)[n+]1C [Compound 45, 3-(3,4-Dihydroxyphenyl)-6,7-dihydroxy-1,2-dimethylisoquinolinium chloride] |  |  | 
18 ± 2 | 12 ± 2 | 13 ± 2 | COc1cc2cc(-c3ccc4c(c3)OCO4)nc(C)c2cc1OC [Compound 21, 3-(Benzo[d][1,3]dioxol-5-yl)-6,7-dimethoxy-1-methylisoquinoline hydrochloride] |  |  | 
5 ± 1 | 42 ± 7 | 17 ± 7 | COc1cc2cc(-c3ccc(Cl)c(Cl)c3)nc(C)c2cc1OC [Compound 39, 3-(3,4-Dichlorophenyl)-6,7-dimethoxy-1-methylisoquinolinylium chloride] |  |  | 
14 ± 3 | 10 ± 4 | 3 ± 4 | COc1cc2cc(-c3cccc([N+](=O)[O-])c3)nc(C)c2cc1OC [Compound 23, 6,7-Dimethoxy-1-methyl-3-(3-nitrophenyl)isoquinolinium chloride] |  |  | 

From patent publication US20100120810A1, “COMPOUNDS AND METHODS FOR MODULATING RHO GTPASES” (priority 2007, published 2010)
